Test system: L929 cells
Type: cell-based
Procedure: A direct overlay method which has been adopted by the FDA for MPS registration was used to evaluate the cytotoxicity profile of the PQ1 formulations. In this method, previously-soaked contact lenses (in 100 ml of the solutions to simulate overnight soak) were directly overlayed on L929 cells. The cytotoxicity result was evaluated by scoring each culture under a microscope on a relative scale of 0-4.

Polyquaternium-1 [30K PQ1]
cytotoxicity score: 2
